Measured values published in patent US20240148821A1, “PHARMACEUTICAL USE OF CYCLIC PEPTIDE COMPOUND” (CHUGAI SEIYAKU KABUSHIKI KAISHA, priority 2021, published 2024).
Bridge positions count the residues as written; N and C are the ends. Square brackets hold non-standard residues; d marks the D form. Peptide text beside a SMILES is read from it. * marks the point of attachment. hPhe(3-Cl-4-CF3) = N[C@@H](CCc1ccc(C(F)(F)F)c(Cl)c1)C(=O)O; NMePhe(2-CF3) = CN[C@@H](Cc1ccccc1C(F)(F)F)C(=O)O; 3Oxa8azabicyclo(3.2.1)octane = C1CC2COCC1N2*; NMePhe(4-Me) = CN[C@@H](Cc1ccc(C)cc1)C(=O)O; NMePhe(4-F) = CN[C@@H](Cc1ccc(F)cc1)C(=O)O; NMeGly(cPent) = CN[C@H](C(=O)O)C1CCCC1; Ala(cPent) = N[C@@H](CC1CCCC1)C(=O)O; NMeCha = CN[C@@H](CC1CCCCC1)C(=O)O; NMeI = CC[C@H](C)[C@H](NC)C(=O)O; NMeD = CN[C@@H](CC(=O)O)C(=O)O; CH2CONHtBu = CC(C)(C)NC(=O)C*; NMeL = CN[C@@H](CC(C)C)C(=O)O; NMehSer = CN[C@@H](CCO)C(=O)O; NMeV = CN[C@H](C(=O)O)C(C)C; d(β3hA) = C[C@@H](N)CC(=O)O; NMeS = CN[C@@H](CO)C(=O)O; NMeA = CN[C@@H](C)C(=O)O; Piperidide = C1CCN(*)CC1; Ac5c = NC1(C(=O)O)CCCC1; Aze = O=C(O)[C@@H]1CCN1; Sar = CNCC(=O)O

These compounds were tested on Human pancreatic cancer cell line AsPC-1 (G12D mutation Kras) (assay: AsPC-1 cell growth inhibition (AsPC-1 CGI)). Settings: read-out: AsPC-1 cell growth inhibition, 50% growth inhibitory concentration (IC50 value); 96 hours, CellTiter-Glo, values classified in ranges.
Format: cell-based
Description: Test compounds were serially dilated with dimethyl sulfoxide, and 200 nL was then dispensed to a U-bottom 96-well plate using Labcyte Echo. […] The cell suspension was dispensed to a. plate containing a test compound at 100 μL per well and incubated at 37° C. in a 5% carbon dioxide gas incubator. 96 hours later, 80 μL of CellTiter-Glo (Promega) was added to each well and fluorescence was measured.

Compound | IC50
CC[C@H](C)[C@@H]1NC(=O)[C@H](CC(C)C)N(C)C(=O)C[C@@H](C(=O)N2C3CCC2COC3)NC(=O)[C@H]([C@@H](C)CC)N(C)C(=O)C2(CCCC2)NC(=O)[C@@H]2CCCN2C(=O)[C@H](CCc2ccc(C(F)(F)F)c(Cl)c2)NC(=O)CN(C)C(=O)[C@H](CC2CCCCC2)N(C)C(=O)CN(C)C(=O)CN(C)C1=O [Compound 1257] ([NMeL]I[Sar][Sar][NMeCha][Sar][hPhe(3-Cl-4-CF3)]P[Ac5c][NMeI]D-{3Oxa8azabicyclo(3.2.1)octane}; lactam N-11) | > 500 nM
CC[C@H](C)[C@@H]1NC(=O)[C@H](C)N(C)C(=O)C[C@@H](C)NC(=O)[C@H](C2CCCC2)N(C)C(=O)C2(CCCC2)NC(=O)[C@@H]2CCCN2C(=O)[C@H](CCc2ccc(C(F)(F)F)c(Cl)c2)NC(=O)CN(C)C(=O)[C@H](Cc2ccc(F)cc2)N(C)C(=O)[C@@H]2CCCN2C(=O)CN(C)C1=O [Compound 146] (cyclo([Ac5c][NMeGly(cPent)][d(β3hA)][NMeA]I[Sar]P[NMePhe(4-F)][Sar][hPhe(3-Cl-4-CF3)]P)) | > 500 nM
CC(C)C[C@H]1C(=O)N[C@@H](CC2CCCC2)C(=O)N(C)CC(=O)N(C)CC(=O)N(C)[C@@H](CC2CCCCC2)C(=O)N(C)CC(=O)N[C@@H](CCc2ccc(C(F)(F)F)c(Cl)c2)C(=O)N2CCC[C@H]2C(=O)NC2(CCCC2)C(=O)N(C)[C@@H](C(C)C)C(=O)N(C)[C@H](C(=O)N2CCCCC2)CC(=O)N1C [Compound 627] ([NMeL][Ala(cPent)][Sar][Sar][NMeCha][Sar][hPhe(3-Cl-4-CF3)]P[Ac5c][NMeV][NMeD]-Piperidide; lactam N-11) | > 500 nM
CC[C@H](C)[C@@H]1NC(=O)[C@H](C)N(C)C(=O)C[C@@H](C)NC(=O)[C@H](C(C)C)N(C)C(=O)C2(CCCC2)NC(=O)[C@@H]2CCCN2C(=O)[C@H](CCc2ccc(C(F)(F)F)c(Cl)c2)NC(=O)CN(C)C(=O)[C@H](Cc2ccc(F)cc2)N(C)C(=O)[C@@H]2CCCN2C(=O)CN(C)C1=O [Compound 1732] (cyclo([Ac5c][NMeV][d(β3hA)][NMeA]I[Sar]P[NMePhe(4-F)][Sar][hPhe(3-Cl-4-CF3)]P)) | > 500 nM
CC[C@H](C)[C@@H]1NC(=O)[C@H](CC(C)C)N(C)C(=O)C[C@@H](C(=O)N2CCCCC2)N(C)C(=O)[C@H](CCOC)N(C)C(=O)C2(CCCC2)NC(=O)[C@@H]2CCCN2C(=O)[C@H](CCc2ccc(C(F)(F)F)c(Cl)c2)NC(=O)CN(C)C(=O)[C@H](CC2CCCCC2)N(C)C(=O)CN(C)C(=O)CN(C)C1=O [Compound 744] ([NMeL]I[Sar][Sar][NMeCha][Sar][hPhe(3-Cl-4-CF3)]P[Ac5c][NMehSer](Me)[NMeD]-Piperidide; lactam N-11) | > 500 nM
CC[C@H](C)[C@@H]1NC(=O)[C@H](CC(C)C)N(C)C(=O)C[C@@H](C(=O)N(C)C)N(C)C(=O)[C@H](C2CCCC2)N(C)C(=O)C2(CCCC2)NC(=O)[C@@H]2CCCN2C(=O)[C@H](CCc2ccc(C(F)(F)F)c(Cl)c2)NC(=O)CN(C)C(=O)[C@H](Cc2ccc(C)cc2)N(C)C(=O)CN(C)C(=O)CN(C)C1=O [Compound 1779] ([NMeL]I[Sar][Sar][NMePhe(4-Me)][Sar][hPhe(3-Cl-4-CF3)]P[Ac5c][NMeGly(cPent)][NMeD]-NMe2; lactam N-11) | ≤ 20 nM
CC[C@H](C)[C@@H]1NC(=O)[C@H](CC(C)C)N(C)C(=O)C[C@@H](C(=O)N2CCCCC2)N(C)C(=O)[C@H](C(C)C)N(C)C(=O)C2(CCCC2)NC(=O)[C@H](C)NC(=O)[C@H](CCc2ccc(C(F)(F)F)c(Cl)c2)NC(=O)CN(C)C(=O)[C@H](CC2CCCCC2)N(C)C(=O)[C@@H]2CCN2C(=O)[C@H](C)N(C)C1=O [Compound 1316] ([NMeL]I[NMeA][Aze][NMeCha][Sar][hPhe(3-Cl-4-CF3)]A[Ac5c][NMeV][NMeD]-Piperidide; lactam N-11) | > 500 nM
CC[C@H](C)[C@@H]1NC(=O)[C@H](CC(C)C)N(C)C(=O)C[C@@H](C)NC(=O)[C@H](C(C)C)N(C)C(=O)C2(CCCC2)NC(=O)[C@@H]2CCCN2C(=O)[C@H](CCc2ccc(C(F)(F)F)c(Cl)c2)NC(=O)CN(C)C(=O)[C@H](Cc2ccccc2C(F)(F)F)N(C)C(=O)CN(C)C(=O)CN(C)C1=O [Compound 1613] (cyclo([Ac5c][NMeV][d(β3hA)][NMeL]I[Sar][Sar][NMePhe(2-CF3)][Sar][hPhe(3-Cl-4-CF3)]P)) | > 500 nM
CC[C@H](C)[C@@H]1NC(=O)[C@H](CC(C)C)N(C)C(=O)C[C@@H](C(=O)N2CCCCC2)N(C)C(=O)[C@H](C(C)C)N(C)C(=O)C2(CCCC2)NC(=O)[C@@H]2CCCN2C(=O)[C@H](CCc2ccc(C(F)(F)F)c(Cl)c2)NC(=O)CN(C)C(=O)[C@H](CC2CCCCC2)N(C)C(=O)[C@@H]2CCN2C(=O)[C@H](COCC(=O)NC(C)(C)C)N(C)C1=O [Compound 998] ([NMeL]I[NMeS](CH2CONHtBu)[Aze][NMeCha][Sar][hPhe(3-Cl-4-CF3)]P[Ac5c][NMeV][NMeD]-Piperidide; lactam N-11) | > 500 nM
